pIC50: −log10 of the molar value. Where two headings read alike, the source gives them in different places.
Key:
triglycerides = experiment: Antilipemic effect: percent triglycerides inhibition in plasma of rats given an olive oil-cholesterol mixture; format: in vivo, male Wistar rats; settings: for inhibition in vivo at 100 mg/kg: oral 100 mg/kg, read-out: Anti-lipemic effect, TG (percent triglycerides inhibition); for inhibition in vivo at 100 mg/kg / inhibition in vivo at 200 mg/kg: plasma 2 hours after dosing, Wistar rat; for inhibition in vivo at 200 mg/kg: oral 200 mg/kg (asterisked values), read-out: Anti-lipemic effect, TG (percent triglycerides inhibition), asterisked; for TG (percent triglycerides inhibition), Table 3: dose not given
Method: (§1) The above compounds of this invention are tested by the following methods for antilipemic effect and acute toxicity. In the column of antilipemic effect in the table, the asterisked values indicate the effect achieved by orally giving 200 mg/kg of the compounds concerned, and the unmarked values, the effect attained by orally giving 100 mg/kg. In the same column, "TG" stands for percent triglycerides inhibition and "CS" percent cholesterol inhibition.
(§2) Seven-week-old male Wistar rats weighing 200 to 220 g are used, 5 rats in each group.
(§3) Each compound of the invention (100 mg or 200 mg) is dissolved in 10 ml of an olive oil-cholesterol mixture (containing 15% of cholesterol). The mixture containing the compound is orally given to the rat with a probe at a dose of 10 ml/kg. Two or 8 hours thereafter, 6 ml of whole blood is withdrawn from the descending aorta of the rat under ether anesthesia with a syringe containing heparin. The blood is centrifuged at 5° C. and 3000 r.p.m. to obtain the plasma. The plasma collected after the lapse of 2 hours is used for determining the triglycerides content, and the plasma obtained 8 hours later for determining the total cholesterol content, using a triglycerides measuring kit (trade mark "Triglycerides-B Test Wako," product of Wako Junyaku Co., Ltd., Japan) and a total cholesterol measuring kit (trade mark "Cholesterol Test Wako," product of the same), respectively. The olive oil-cholesterol mixture containing no compound is similarly given to a control group, while no treatment is conducted for a normal group. The triglycerides and total cholesterol contents in the plasma are also determined for these groups in the same manner as is the case with the test groups.
(§4) The present hyperlipidemia inhibition achieved by the present compound is given by [formula] in which A is the triglycerides (cholesterol) content of the control group, B is the triglycerides (cholesterol) content of the normal group, and C is the triglycerides (cholesterol) content of the group to which the present compound is given.

cholesterol = experiment: Antilipemic effect: percent total cholesterol inhibition in plasma of rats given an olive oil-cholesterol mixture; format: in vivo, male Wistar rats; settings: oral 100 mg/kg, plasma 8 hours after dosing, Wistar rat; read-out: Anti-lipemic effect, CS (percent cholesterol inhibition)
Method: as §1, §2, §3, §4

Acute toxicity = settings: rat, in vivo
Source text: Six-week-old male Wistar rats weighing 180 to 200 g are used, 5 rats in each group. Each compound of the invention is suspended in a 30% aqueous solution of polyethylene glycol 6000 and orally given to the rat at the dosage shown in Table 2. The animals are checked for poisoning, body weight and survival to determine the LD50 value.

esterase = experiment: Esterase inhibiting activity; format: biochemical; settings: rat liver microsome esterase, methyl butyrate substrate, pH 8.0, 37° C., 60 minutes; read-out: IC50 for esterases
Method: A 10 micromole quantity of methyl butyrate in a 50% ethanol solution is added as a substrate to a specified amount of buffer solution containing 0.1 mole of trishydrochloric acid (pH 8.0). To the mixture is further added a 50% ethanol solution of the compound of the invention, immediately followed by addition of an esterase solution prepared from a purified microsome fraction of the liver of a rat (adjusted to hydrolyze 9 micromoles of methyl butyrate at 37° C. in one hour) as an enzyme solution. The mixture is reacted at 37° C. for 60 minutes.
After the reaction, alkaline hydroxylamine is added to the mixture to form a hydroxamic acid derivative of methyl butyrate, and a ferric salt is added to the derivative. The resulting red color is colorimetrically determined (at a wavelength of 540 nm) to determine the amount of remaining methyl butyrate. The esterase inhibiting ratios of the present compound at least at three concentrations are plotted as ordinate, and the logarithms of the concentrations as abscissa to obtain a line, which gives the 50% inhibition concentration (IC50).

chymotripsin = chymotripsin (Bos taurus, UniProt P00766); experiment: Chymotripsin inhibiting activity; format: biochemical; settings: 0.5 h; compound 1×10^-4 mole, ATEE substrate, pH 8.0, 37° C.; read-out: Percent chymotripsin inhibition
Method: Chymotripsin (0.1 unit) serving as an enzyme solution is added to a specified quantity of buffer solution containing 0.1 mole of trishydrochloric acid (pH 8.0). To the mixture is further added a 50% ethanol solution of the compound of the invention so that the resulting mixture contains the compound in a concentration of 1×10^-4 mole. The mixture is reacted at 37° C. for 20 minutes.
On completion of the reaction, 10 micromoles of N-acetyl-L-thyrosine ethyl ester (ATEE) serving as a substrate is added to the mixture, and the resulting mixture is reacted at 37° C. for 30 minutes.
After the completion of the reaction, the amount of remaining ATEE is determined by the same hydroxamic acid method as above. The percent chymotripsin inhibition is given by [formula] wherein A is the amount of hydrolyzed esters in the reaction system not containing the compound of the invention, and B is the amount of hydrolyzed esters in the reaction system containing the present compound.

SMILES | inhibition in vivo at 100 mg/kg (triglycerides) [%] | inhibition in vivo at 100 mg/kg (cholesterol) [%] | pIC50 (esterase) | LD50 (Acute toxicity; po) [mg/kg] | inhibition at 100 µM (chymotripsin) [%] | also measured
CCCC(=O)COS(=O)(=O)CC [Compound 1, 2-oxopentylethane sulfonate] | 92 | 89 | 4.92 |  |  | LD50 (Acute toxicity; oral, six-week-old male Wistar rats, suspended in 30% aqueous polyethylene glycol 6000, read-out: LD50): > 1000 mg/kg
Cc1ccc(S(=O)(=O)OCC(=O)CCCCCCC(C)C)cc1 [Compound 27] |  |  | 6.17 | > 3000 | 17 | inhibition in vivo at 200 mg/kg (triglycerides): 59%
C=CCCCCCCCCC(=O)COS(=O)(=O)c1ccc(C)cc1 [Compound 28] |  |  | 6.64 | > 3000 | 15 | inhibition in vivo at 200 mg/kg (triglycerides): 61%
CCCCCC(=O)COS(=O)(=O)c1ccc(Cl)cc1 [Compound 66] | 88 |  | 5.59 |  | 100 | 
CCCC(C)C(=O)COS(=O)(=O)c1ccc(OCC)cc1 (centres unmarked) [Compound 133] | 111 | 91 |  | > 4500 |  | 
CCOc1ccc(S(=O)(=O)OCC(=O)CC(C)CC)cc1 (centres unmarked) [Compound 136] | 80 | 99 |  | > 4500 |  | 
CCCCC(C)C(=O)COS(=O)(=O)c1ccc(OCC)cc1 (centres unmarked) [Compound 139] | 84 | 87 |  | > 3000 |  | 
CCCCC(CCC)C(=O)COS(=O)(=O)c1ccc(OCC)cc1 (centres unmarked) [Compound 140] | 67 | 61 |  | > 3000 |  | 
CCCCC(CCCC)C(=O)COS(=O)(=O)c1ccc(OCC)cc1 [Compound 141] | 68 | 66 |  | > 3000 |  | 
CCCCCC(C)C(=O)COS(=O)(=O)c1ccc(OCC)cc1 (centres unmarked) [Compound 146] | 85 | 77 |  | > 4000 |  | 
CCC(C)C(=O)COS(=O)(=O)c1c(C)cc(C)cc1C (centres unmarked) [Compound 147] | 98 | 72 |  | > 3000 |  | 
CCC(CC)C(=O)COS(=O)(=O)c1c(C)cc(C)cc1C [Compound 148] | 96 | 80 |  | > 3000 |  | 
CCCC(C)C(=O)COS(=O)(=O)c1c(C)cc(C)cc1C (centres unmarked) [Compound 150] | 84 | 79 |  | > 3000 |  | 
CCCC(CCC)C(=O)COS(=O)(=O)c1c(C)cc(C)cc1C [Compound 152] | 78 | 69 |  | > 4000 |  | 
CCC(CC)CC(=O)COS(=O)(=O)c1c(C)cc(C)cc1C [Compound 154] | 76 | 70 |  | > 4000 |  | 
CCCCC(C)C(=O)COS(=O)(=O)c1c(C)cc(C)cc1C (centres unmarked) [Compound 155] | 67 | 71 |  | > 3000 |  | 
CCCCC(CCC)C(=O)COS(=O)(=O)c1c(C)cc(C)cc1C (centres unmarked) [Compound 156] | 58 | 62 |  | 4000 |  | 
CCCCC(CCCC)C(=O)COS(=O)(=O)c1c(C)cc(C)cc1C [Compound 157] | 67 | 66 |  | > 4000 |  | 
CCC(C)CCC(=O)COS(=O)(=O)c1c(C)cc(C)cc1C (centres unmarked) [Compound 159] | 49 | 51 |  | > 4000 |  | 
CCC(CC)CCC(=O)COS(=O)(=O)c1c(C)cc(C)cc1C [Compound 160] | 42 | 40 |  | > 4000 |  | 

SMILES | inhibition in vivo at 100 mg/kg (triglycerides) [%] | inhibition in vivo at 100 mg/kg (cholesterol) [%] | pIC50 (esterase) | LD50 (Acute toxicity; po) [mg/kg] | inhibition at 100 µM (chymotripsin) [%] | also measured
Cc1cc(C)c(S(=O)(=O)OCC(=O)CCCC(C)C)c(C)c1 [Compound 161] | 51 | 56 |  | > 3000 |  | 
O=C(COS(=O)(=O)c1ccccc1)C1CCCCC1 [Compound 163] |  |  | 5.80 |  | 13 | 
O=C(CCC1CCCCC1)COS(=O)(=O)c1ccccc1 [Compound 164, 2-oxo-4-cyclohexyl-butylbenzenesulfonate] |  |  | 5.66 |  | 100 | TG (percent triglycerides inhibition), Table 3 (triglycerides): 98%
Cc1ccc(S(=O)(=O)OCC(=O)CC2CCCC2)cc1 [Compound 165] |  |  | 5.36 |  | 90 | 
Cc1ccc(S(=O)(=O)OCC(=O)CC2CCCCC2)cc1 [Compound 166] |  |  | 5.46 |  | 98 | 
Cc1ccc(S(=O)(=O)OCC(=O)CCC2CCCCC2)cc1 [Compound 167] |  |  | 5.51 |  | 100 | TG (percent triglycerides inhibition), Table 3 (triglycerides): 53%
O=C(COS(=O)(=O)c1ccc(O)cc1)CC1CCCCC1 [Compound 169] |  |  | 6.10 |  |  | 
Cc1cc(C)c(S(=O)(=O)OCC(=O)C2CCCCC2)c(C)c1 [Compound 176] |  |  | 6.10 |  |  | 
Cc1cc(C)c(S(=O)(=O)OCC(=O)CC2CCCCC2)c(C)c1 [Compound 177] |  |  | 6.70 |  | 10 | 
O=C(COS(=O)(=O)c1ccc(Cl)cc1)C1CCCCC1 [Compound 179] |  |  | 5.82 |  | 32 | 
Cc1cc(C)c(S(=O)(=O)OCC(=O)C2CCOCC2)c(C)c1 [Compound 186] |  |  | 4.49 |  |  | 
Cc1ccc(S(=O)(=O)OCC(=O)CCc2ccccc2)cc1 [Compound 187] |  |  | 4.85 |  | 100 | TG (percent triglycerides inhibition), Table 3 (triglycerides): 94%
O=C(CCc1ccccc1)COS(=O)(=O)c1ccc(Cl)cc1 [Compound 188] |  |  | 4.60 |  | 100 | TG (percent triglycerides inhibition), Table 3 (triglycerides): 95%
O=C(CCCCl)COS(=O)(=O)c1ccccc1 [Compound 193, 2-oxo-5-chloro-n-pentyl-benzene sulfonate] |  |  | 6.09 |  | 46.8 | 
COCCCC(=O)COS(=O)(=O)c1ccccc1 [Compound 194] |  |  | 5.62 |  | 3.2 | 
CC(=O)OCCCC(=O)COS(=O)(=O)c1ccccc1 [Compound 195] |  |  | 4.59 |  | 22.2 | TG (percent triglycerides inhibition), Table 3 (triglycerides): 62%
COC(=O)CCCC(=O)COS(=O)(=O)c1ccccc1 [Compound 196] |  |  | 5.17 |  | 65.3 | TG (percent triglycerides inhibition), Table 3 (triglycerides): 77.9%
O=C(CCCCCNC(=O)OCc1ccccc1)COS(=O)(=O)c1ccccc1 [Compound 197] |  |  | 4.52 |  | 47 | 
CCOc1ccc(S(=O)(=O)OCC(=O)CCCC(=O)OC)cc1 [Compound 201, 2-oxo-5-methoxycarbonyl-n-pentyl-p-ethoxybenzene sulfonate] |  |  | 3.77 |  | 33 | 
COCCCC(=O)COS(=O)(=O)c1c(C)cc(C)cc1C [Compound 205] |  |  | 5.82 |  | 10 | 

Reference: US4489091A, “Antilipemic and anti-inflammatory compositions containing sulfonate derivatives” (Taiho Pharmaceutical Company Limited, priority 1980, dated 1984)
